Data on one molecule can be found in ChEMBL document CHEMBL1158393, “Synthesis, characterization and in vitro antiproliferative activities of new 13-cis-retinoyl ferrocene derivatives” (Eur J Med Chem, 2009).

Holding throughout (assay type): functional, cell-based
The test system of one assay is A549. In words: Cytotoxicity against human A549 cells after 24 hrs by MTT assay. As to conditions: A549, 24 h. A general note: Formazan colour is commonly taken as a measure of viable cells.
Assay [1] can be described thus: Cytotoxicity against human Bel7404 cells after 24 hrs by MTT assay. As to conditions: BEL-7404, 24 h.
Assay [2] in a line: Cytotoxicity against human Tca cells after 24 hrs by MTT assay.

Broadly, the IC50 is the concentration that inhibits the measured activity by half. Low readings indicate greater potency, high ones weaker potency. For `CC1=C(/C=C/C(C)=C/C=C/C(C)=C\C(=O)O)C(C)(C)CCC1` [ISOTRETINOIN], the concentration for half-maximal inhibition (IC50) was found to be 35.8 µM in the assay on A549, 42.6 µM in assay [1] and 39.7 µM in assay [2].
